Drawing on US20220235065A1 (Epizyme, Inc., priority 2016, published 2022), this text covers IC50 for 51 compounds.

For the test, the system named is H3K9me2 in MDA-MB-231 cells. As to the kind of experiment: MDA-MB-231 H3K9me2 in-cell western assay. The test is classed as cell-based. The settings on record: Homo sapiens, read-out: EHMT2 ICW (IC50 μM). The text has this: MDA-MB-231 cell line was purchased from ATCC (Manassas, Va., USA). RPMI/Glutamax medium, Penicillin-Streptomycin, Heat Inactivated Fetal Bovine Serum, and D-PBS were purchased from Life Technologies (Grand Island, N.Y., USA). Odyssey blocking buffer, 800CW goat anti-mouse IgG (H+L) antibody, and Licor Odyssey Infrared Scanner were purchased from Licor Biosciences, Lincoln, Nebr., USA. H3K9me2 mouse monoclonal antibody (Cat #1220) was purchased from Abcam (Cambridge, Mass., USA). 16% Paraformaldehyde was purchased from Electron Microscopy Sciences, Hatfield, Pa., USA). MDA-MB-231 cells were maintained in complete growth medium (RPMI supplemented with 10% v/v heat inactivated fetal bovine serum) and cultured at 37° C. under 5% CO2. UNC0638 was purchased from Sigma-Aldrich (St. Louis, Mo., USA).
General Procedure for MDA-MB-231 HEK9me2 In-Cell Western Assay.
Compound (100 nL) was added directly to 384-well cell plate. MDA-MB-231 cells (ATCC) were seeded in assay medium (RPMI/Glutamax supplemented with 10% v/v heat inactivated fetal bovine serum and 1% Penicillin/Streptomycin, Life Technologies) at a concentration of 3,000 cells per well to a Poly-D-Lysine coated 384-well cell culture plate with 50 μL per well. Plates were incubated at 37° C., 5% CO2 for 48 hours (BD Biosciences 356697). Plates were incubated at room temperature for 30 minutes and then incubated at 37° C., 5% CO2 for additional 48 hours. After the incubation, 50 μL per well of 8% paraformaldehyde (Electron Microscopy Sciences) in PBS was added to the plates and incubated at room temperature for 20 minutes. Plates were transferred to a Biotek 406 plate washer and washed 2 times with 100 μL per well of wash buffer (1×PBS containing 0.3% Triton X-100 (v/v)). Next, 60 μL per well of Odyssey blocking buffer (Licor Biosciences) was added to each plate and incubated for 1 hour at room temperature. Blocking buffer was removed and 20 μL of monoclonal primary antibody α-H3K9me2 (Abcam) diluted 1:800 in Odyssey buffer with 0.1% Tween 20 (v/v) were added and plates were incubated overnight (16 hours) at 4° C. Plates were washed 5 times with 100 μL per well of wash buffer. Next 20 μL per well of secondary antibody was added (1:500 800CW […] anti-mouse IgG (H+L) antibody (Licor Biosciences), 1:1000 DRAQ5 (Cell Signaling Technology) in Odyssey buffer with 0.1% Tween 20 (v/v)) and incubated for 1 hour at room temperature. The plates were washed 5 times with 100 μL per well wash buffer then 2 times with 100 μL per well of water. Plates were allowed to dry at room temperature then imaged on a Licor Odyssey Infrared Scanner (Licor Biosciences) which measured integrated intensity at 700 nm and 800 nm wavelengths. Both 700 and 800 channels were scanned.
% Inhibition Calculation.
First, the ratio for each well was determined by
Each plate included fourteen control wells of DMSO only treatment (Minimum Inhibition) as well as fourteen control wells (background wells) for maximum inhibition treated with control compound UNC0638 (Background wells).
The average of the ratio values for each well was calculated and used to determine the percent inhibition for each test well in the plate. Control compound was serially diluted three-fold in DMSO for a total of 10 test concentrations beginning at 1 μM. Percent inhibition was calculated as: […]
IC50 curves were generated using triplicate wells per concentration of compound. The IC50 is the concentration of compound at which measured methylation is inhibited by 50% as interpolated from the dose response curves. IC50 values were calculated using a non-linear regression (variable slope-four parameter fit model) with by the following formula
where Top is fixed at 100% and Bottom is fixed to 0%, [I]=concentration of inhibitor, IC50=half maximal inhibitory concentration and n=Hill Slope.

Counter-ions that a name gives are not always drawn.

For `CNc1cc(C)nc(Nc2ccc(OC)c(-c3cn4c(n3)CN(C)CC4)c2)n1` [Compound 6], the IC50 was over 10 µM. To `CNc1cc(C)nc(Nc2ccc(OC)c(-c3cn4c(n3)CNCC4)c2)n1` [Compound 7] belongs 1 to 10 µM.

As for `CNc1cc(C)nc(Nc2ccc(OC)c(-c3nc4n(n3)CCNC4)c2)n1` [Compound 8, 2-N-(4-methoxy-3-[4H,5H,6H,7H-[1,2,4]triazolo[1,5-a]pyrazin-2-yl]phenyl)-4-N,6-dimethylpyrimidine-2,4-diamine hydrochloride], the concentration for half-maximal inhibition (IC50) is over 10 µM. For `CNc1cc(C)nc(Nc2ccc(OC)c(-c3nc4n(n3)CCN(C)C4)c2)n1` [Compound 9], the IC50 was over 10 µM. With `CNc1cc(C)nc(Nc2ccc(OC)c(-n3ncc4c3CCN(C)C4)c2)n1` [Compound 10], the half-maximal inhibitory concentration (IC50) is 0.1 to 1 µM. As for `CNc1cc(C)nc(Nc2ccc(OC)c(-c3nnc(C)[nH]3)c2)n1` [Compound 11], the figure is over 10 µM; as for `CNc1cc(C)nc(Nc2ccc(OC)c(-c3cn[nH]c3)c2)n1` [Compound 12, 2-N-[4-methoxy-3-(1H-pyrazol-4-yl)phenyl]-4-N,6-dimethylpyrimidine-2,4-diamine], over 10 µM; as for `CNc1cc(C)nc(Nc2ccc(OC)c(-n3cc4ccccc4n3)c2)n1` [Compound 146], 1 to 10 µM.

As for `CNc1cc(C)nc(Nc2ccc(OC)c(-n3cc4cc(Br)ccc4n3)c2)n1` [Compound 148], the IC50 was 1 to 10 µM. Regarding `CNc1cc(C)nc(Nc2ccc(OC)c(-n3cc4cncc(C)c4n3)c2)n1` [Compound 151], the IC50 lay in the range of 0.1 to 1 µM. To `CNc1cc(C)nc(Nc2ccc(OC)c(-c3ccc4nc(C)[nH]c4c3)c2)n1` [Compound 155] belongs over 10 µM; to `CNc1cc(C)nc(Nc2ccc(OC)c(-c3ccc4cc(C)[nH]c4c3)c2)n1` [Compound 156], 1 to 10 µM; to `CNc1cc(C)nc(Nc2ccc(OC)c(-c3cc4ccncc4[nH]3)c2)n1` [Compound 157, N2-(4-methoxy-3-(1H-pyrrolo[2,3-c]pyridin-2-yl)phenyl)-N4,6-dimethylpyrimidine-2,4-diamine], 0.1 to 1 µM. As for `CNc1cc(C)nc(Nc2ccc(OC)c(-c3cc4cnccc4n3C)c2)n1` [Compound 158], the figure is 0.1 to 1 µM. As for `CNCc1cn(-c2cc(Nc3nc(C)cc(NC)n3)ccc2OC)nn1` [Compound 159, N2-(4-methoxy-3-(4-((methylamino)methyl)-1H-1,2,3-triazol-1-yl)phenyl)-N4,6-dimethylpyrimidine-2,4-diamine], the concentration for half-maximal inhibition (IC50) is 0.1 to 1 µM. As for `CNc1cc(C)nc(Nc2ccc(OC)c(-n3cc(CN(C)C)c(C)n3)c2)n1` [Compound 160], the figure is 0.1 to 1 µM; as for `CNc1nc2cc(-n3cc(CN(C)C)nn3)c(OC)cc2n1C` [Compound 163], 1 to 10 µM. `CNc1cc(C)nc(Nc2ccc(OC)c(-n3cc(C(C)NC)nn3)c2)n1` (stereo not drawn) [Compound 164]: the half-inhibitory concentration (IC50) was in the range of 0.1 to 1 µM. As for `CNc1cc(C)nc(Nc2ccc(OC)c(-n3cc(C(NC)C(F)(F)F)nn3)c2)n1` (stereo not drawn) [Compound 165], the figure is over 10 µM. To `CNc1cc(C)nc(Nc2ccc(OC)c(-n3cc(C(C)(C)NC)nn3)c2)n1` [Compound 166] belongs over 10 µM. With `CNc1ccnc(Nc2ccc(OC)c(-n3cnc(CN(C)C)c3)c2)n1` [Compound 170], the IC50 was 0.1 to 1 µM. As for `CNc1ccnc(Nc2ccc(OC)c(-n3cc(CN(C)C)nn3)c2)n1` [Compound 171], the figure is 0.1 to 1 µM; as for `CCNCc1cn(-c2cc(Nc3nccc(NC)n3)ccc2OC)nn1` [Compound 172], 1 to 10 µM.

Consider `CNc1ccnc(Nc2ccc(OC)c(-n3cc(CNCC4CC4)nn3)c2)n1` [Compound 173], for which the concentration for half-maximal inhibition (IC50) lay within 1 to 10 µM. To `CNc1ccnc(Nc2ccc(OC)c(-c3cc4[nH]ncc4cn3)c2)n1` [Compound 174] belongs 1 to 10 µM; to `CNc1ccnc(Nc2ccc(OC)c(-c3cc4[nH]ccc4cn3)c2)n1` [Compound 175, N2-(4-methoxy-3-(1H-pyrrolo[3,2-c]pyridin-6-yl)phenyl)-N4-methylpyrimidine-2,4-diamine], 0.1 to 1 µM; to `CNc1ccnc(Nc2ccc(OC)c(-n3cc(C4CC4)nn3)c2)n1` [Compound 176], 1 to 10 µM. As for `CNc1ccnc(Nc2ccc(OC)c(-n3cc(C4COC4)nn3)c2)n1` [Compound 177], the figure is over 10 µM; as for `CNc1ccnc(Nc2ccc(OC)c(-c3ccc4cc[nH]c4c3)c2)n1` [Compound 178], over 10 µM. As for `CNCc1cnn(-c2cc3nc(NC)n(C)c3cc2OC)c1` [Compound 179], the figure is 1 to 10 µM; as for `CNCc1cnn(-c2cc(Nc3nccc(NC)n3)ccc2OC)c1` [Compound 181, N2-(4-methoxy-3-(4-((methylamino)methyl)-1H-pyrazol-1-yl)phenyl)-N4-methylpyrimidine-2,4-diamine], 0.1 to 1 µM; as for `CNCc1cnn(-c2cc3nc(NC)cc(C4CCOCC4)c3cc2OC)c1` [Compound 184], 1 to 10 µM.

Consider `CCNCc1cnn(-c2cc(Nc3nccc(NC)n3)ccc2OC)c1` [Compound 185], for which the half-maximal inhibitory concentration (IC50) lay within 1 to 10 µM. To `CNCc1cnn(-c2cc3c(cc2OC)C2(CCC2)C(N)=N3)c1` [Compound 186] belongs 0.1 to 1 µM; to `CNCc1cnn(-c2cc3c(cc2OC)C2(CCC2)C(NC)=N3)c1` [Compound 187], 0.1 to 1 µM. Turning to `CNc1cc(C)nc(Nc2cnc(OC)c(-n3cc(C4CCCN4)cn3)c2)n1` (stereo not drawn) [Compound 188], the 50% inhibitory concentration (IC50) is 1 to 10 µM. To `CNc1ccnc(Nc2ccc(OC)c(-n3cc(CNC4CCC4)nn3)c2)n1` [Compound 191] belongs over 10 µM; to `CNC1=Nc2cc(-n3cc([C@H]4CCCN4)nn3)c(OC)cc2C12CCC2` [Compound 192], 0.1 to 1 µM; to `COc1cc2c(cc1-n1cc([C@H]3CCCN3)nn1)N=C(N)C21CCC1` [Compound 193], 0.1 to 1 µM. As for `COc1cc2c(cc1-n1cc(C3CCCN3)nn1)N=C(N)C21CCC1` (stereo not drawn) [Compound 194], the figure is 0.1 to 1 µM. Turning to `COc1cc2c(cc1-n1cc([C@@H]3CCCN3)nn1)N=C(N)C21CCC1` [Compound 195], the IC50 was in the range of 1 to 10 µM.

As for `CNc1cc(C2CCOCC2)c2cc(OC)c(-n3cc(C4CCCN4)nn3)cc2n1` (stereo not drawn) [Compound 196], the IC50 was in the range of 1 to 10 µM. As for `CNc1cc(C)nc(Nc2ccc(OC)c(-c3[nH]c4cnccc4c3F)c2)n1` [Compound 199], the figure is 1 to 10 µM; as for `CNc1cc(C)nc(Nc2ccc(OC)c(-c3[nH]c4cnccc4c3C)c2)n1` [Compound 200, N2-(4-methoxy-3-(3-methyl-1H-pyrrolo[2,3-c]pyridin-2-yl)phenyl)-N4,6-dimethylpyrimidine-2,4-diamine], under 0.1 µM; as for `CNc1cc(C)nc(Nc2ccc(OC)c(-c3cc4ncncc4[nH]3)c2)n1` [Compound 201], over 10 µM. As for `COc1cc2c(cc1-c1cc3ccncc3[nH]1)N=C(N)C21CCC1` [Compound 202], the figure is 1 to 10 µM; as for `CNc1cc(C)nc(Nc2cnc(OC)c(-c3cc4ccncc4[nH]3)c2)n1` [Compound 204], over 10 µM; as for `COc1cc(NC2CCNCC2)ncc1-c1cc2ccncc2[nH]1` [Compound 205], over 10 µM.

Turning to `CNc1cc(C)nc(Nc2ccc(OC)c(-c3cc4[nH]ccc4cn3)c2)n1` [Compound 206, N2-(4-methoxy-3-(1H-pyrrolo[3,2-c]pyridin-6-yl)phenyl)-N4,6-dimethylpyrimidine-2,4-diamine], the IC50 was under 0.1 µM. As for `CNc1cc(C)nc(Nc2ccc(OC)c(-c3cc4[nH]c(C)cc4cn3)c2)n1` [Compound 207], the figure is 0.1 to 1 µM; as for `COc1cc(NC2CCNCC2)ncc1-c1cc2[nH]ccc2cn1` [Compound 208], over 10 µM.

The term IC50 denotes the concentration at which inhibition is half-maximal.
